Experimental data from paper PMC3958483, “Fine Specificity and Molecular Competition in SLAM Family Receptor Signalling” (PLoS ONE, 2014).
Entries after “also recorded” stand apart in the source; their conditions may differ. Like-named read-outs stand apart in the source and are kept apart here. Non-standard residues stand in square brackets, D forms with d. Residues, ends and D or L forms follow the SMILES beside them. *: point of attachment. Biotin = O=C1N[C@H]2[C@H](CS[C@H]2CCCCC(=O)*)N1; pY = N[C@@H](Cc1ccc(OP(=O)(O)O)cc1)C(=O)O

What was measured:
[1] = biological target: T1, PLCγ1 (SH2-SH2-SH3) (Homo sapiens, UniProt P19174); experiment: SPR binding of PLCγ1 SH2-SH2-SH3 to immobilised phosphopeptides; settings: 37°C, ten two-fold dilutions, top concentration 1 μM, one-site specific binding model, curve shown in Figure 7B
T1 construct: PLCγ1 (Swiss-Prot: P19174, aa 536–863); 6xHis (N); made in house; host or cells: E. coli BL21(DE3)pLysS
T1 sequence (P19174 536-863): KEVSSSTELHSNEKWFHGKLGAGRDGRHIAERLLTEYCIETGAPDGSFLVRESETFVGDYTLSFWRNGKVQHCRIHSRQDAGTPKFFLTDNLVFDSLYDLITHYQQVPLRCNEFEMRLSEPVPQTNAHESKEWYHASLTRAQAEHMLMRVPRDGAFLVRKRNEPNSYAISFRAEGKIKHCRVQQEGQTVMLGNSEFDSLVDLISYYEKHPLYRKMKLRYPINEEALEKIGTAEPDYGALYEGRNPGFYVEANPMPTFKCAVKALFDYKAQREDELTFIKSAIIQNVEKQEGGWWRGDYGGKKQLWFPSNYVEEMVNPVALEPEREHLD
Excerpt: (§1) Biotinylated EAT-2 was produced by expression of full length human EAT-2 with a C-terminal BirA tag ([…]) in the E coli expression vector pTrcHisA. Constructs encoding the 6xHis-tagged tandem SH2 domains plus the SH3 domains of PLCγ1 (Swiss-Prot: P19174, aa 536–863) and PLCγ2 (Swiss-Prot: P16885, aa 519–838) were generated in pTrcHisA (5′ joining sequence with BglII site underlined: gag atc tcc translates as EIS). The molecular weight (MW) and theoretical extinction coefficients (EC) of recombinant PLCγ1 and PLCγ2 SH2-SH2-SH3 domains were PLCγ1; MW = 42531, EC = 63,830 M^−1 cm^−1 and PLCγ2; MW = 42415, EC = 67,270 M^−1 cm^−1.
(§2) Soluble recombinant proteins were produced in BL21(DE3)pLysS E. coli (Calbiochem) at 37°C in 2TY medium and induced at OD 600 = 0.6 with 0.1 mM IPTG for 4 h or in 2XYT auto-induction (Formedium) medium overnight. Bacterial pellets were resuspended in ∼0.1 volume 10 mM HEPES pH7.4, 150 mM NaCl and used immediately or stored at −20°C in 10 ml aliquots. His-tag mediated protein purification was performed on a Co^2+ or Ni^2+ column by standard protocols. […]
(§3) Measurements of protein-protein affinity were performed on BIAcore 3000 and T200 systems using CM5 or biotin capture chips (GE Healthcare Ltd, UK). […] Equilibrium binding coefficients and dissociation and association rates were calculated using BIAevaluation and/or GraphPad Prism 5.4 software. […]

[2] = biological target: T2, PLCγ2 (SH2-SH2-SH3) (Homo sapiens, UniProt P16885); experiment: SPR binding of PLCγ2 SH2-SH2-SH3 to immobilised phosphopeptides; settings: KD (Figure 7B), 37°C, ten two-fold dilutions, top concentration 1 μM, one-site specific binding model, curve shown in Figure 7B
T2 construct: PLCγ2 (Swiss-Prot: P16885, aa 519–838); 6xHis (N); made in house; host or cells: E. coli BL21(DE3)pLysS
T2 sequence (P16885 519-838): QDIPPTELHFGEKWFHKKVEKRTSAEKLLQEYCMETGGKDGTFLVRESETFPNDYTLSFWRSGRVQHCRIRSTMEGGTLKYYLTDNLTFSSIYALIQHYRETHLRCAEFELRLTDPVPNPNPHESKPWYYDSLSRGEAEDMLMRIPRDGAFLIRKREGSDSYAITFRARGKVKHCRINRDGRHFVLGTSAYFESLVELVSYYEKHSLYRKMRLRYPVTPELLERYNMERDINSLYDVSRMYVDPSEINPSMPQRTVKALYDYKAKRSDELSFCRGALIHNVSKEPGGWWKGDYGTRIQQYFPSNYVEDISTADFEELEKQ
Excerpt: as §1, §2, §3

[3] = Pull-down with phosphorylated CD244 ITSM1 from NK cell lysates, LC-MS/MS; assay type: binding; settings: human NK cell lysates; compared with control phosphopeptide SHIP-1 Y865
Protocol: For pull-down of associated proteins, streptavidin Sepharose (GE Healthcare) was pre-coated with saturating amounts of peptide or EAT-2. NK92 cells (4×10^8) were treated with 500 μM pervanadate for 15 minutes, then lysed in PBS, 1% Triton X-100, 1 mM sodium orthovanadate in the presence of mammalian protease inhibitor solution (Sigma). Lysates were pre-cleared by centrifugation, followed by incubation with streptavidin Sepharose. Peptide or EAT-2-coated streptavidin beads were incubated with NK92 lysates for 2 hours at 4°C with rotation. Beads were washed once with 15 ml ice cold PBS/1% (v/v) Triton X-100. Bound protein was eluted using 100 mM glycine-HCl pH 2.5.
Protein samples were prepared for mass spectrometry as described previously. Briefly, eluted proteins were spun onto the membranes of Vivacon 500 filters (10,000 MWCO – Sartorius). Membranes were washed once with PBS then proteins were denatured with 8 M urea, reduced with 10 mM DTT in 25 mM ammonium bicarbonate buffer, followed by alkylation with 50 mM iodoacetamide. Proteins were then digested overnight with trypsin. Tryptic peptides were then eluted from the membrane and analyzed on an Ultimate 3000 HPLC-coupled Orbitrap XL mass spectrometer. Proteins were identified by liquid chromatography-coupled tandem mass-spectrometry (LC-MS/MS). Raw data files were converted to mzXML format using ReADW (v. 4.2.1) and submitted to the Central Proteomics Facilities Pipeline for database comparison and peptide identification. Searching against the International Protein Index (IPI) human protein sequence database for protein identification, protein and peptide hits were statistically validated by applying a 1% false discovery rate (FDR) by searching against a concatenated target/decoy database. Datasets were searched with variable peptide modifications for phosphotyrosine, phosphoserine, phosphothreonine, oxidation of methionine and deamination.
Protein identification data were exported into ProteinCenter (v3.8.3013 – Thermo Fisher) for filtering and annotation. Results were filtered to remove any proteins with less than 3 unique peptides, less than 10 percent sequence coverage, or median protein probability scores less than 0.5. To establish sample specificity, any protein with at least 10-fold greater sequence coverage in one sample compared with the other was considered to be specific for that sample.
Similarly, differences in specificity of inhibitory SH2 domain containing proteins for ITSMs are relevant to understanding mechanisms of inhibition by ITSMs. We focused on CD244 ITSMs to establish general paradigms.

[4] = biological target: T3, EAT-2 (Homo sapiens, UniProt O14796); experiment: SPR binding of EAT-2 to immobilised phosphopeptides; settings: 37°C
T3 construct: His-tag; made in house; host or cells: E. coli BL21(DE3)pLysS
T3 sequence (O14796 1-132): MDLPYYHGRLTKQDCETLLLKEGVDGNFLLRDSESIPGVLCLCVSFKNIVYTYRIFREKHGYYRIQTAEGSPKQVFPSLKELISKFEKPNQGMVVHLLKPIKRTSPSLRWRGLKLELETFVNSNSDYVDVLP
Excerpt: as §1
Soluble recombinant proteins were produced in BL21(DE3)pLysS E. coli (Calbiochem) at 37°C in 2TY medium and induced at OD 600 = 0.6 with 0.1 mM IPTG for 4 h or in 2XYT auto-induction (Formedium) medium overnight. Bacterial pellets were resuspended in ∼0.1 volume 10 mM HEPES pH7.4, 150 mM NaCl and used immediately or stored at −20°C in 10 ml aliquots. His-tag mediated protein purification was performed on a Co^2+ or Ni^2+ column by standard protocols. […] Where applicable, proteins were stored frozen in 10–25 mM HEPES pH 7.4, 200–300 mM NaCl (pH 7.4).All proteins were purified by size exclusion chromatography immediately prior to SPR analysis.
Measurements of protein-protein affinity were performed on BIAcore 3000 and T200 systems using CM5 or biotin capture chips (GE Healthcare Ltd, UK). Streptavidin was coupled to CM5 sensor chips using standard NHS/EDC chemical linkage, followed by immobilization of biotinylated peptides. The levels of peptide immobilized were approximately 25 and 50 response units respectively of single and tandem tyrosine motifs to facilitate saturating binding and limitation of “bridging” [22], [45]. Purified recombinant proteins were passed over the immobilized peptides at a range of concentrations in HBS-EP buffer, 10 mM HEPES pH 7.4, 150 mM NaCl, 3.4 mM EDTA, 0.005% surfactant, P20. Equilibrium binding coefficients and dissociation and association rates were calculated using BIAevaluation and/or GraphPad Prism 5.4 software.
The specificities of their SH2 domains overlap, introducing the concept of competition between them for ITSMs in cells where they are co-expressed, including NK cells.

[5] = biological target: T4, SAP (Homo sapiens, UniProt O60880); experiment: SPR binding of SAP to immobilised phosphopeptides; settings: 37°C
T4 construct: His-tag; made in house; host or cells: E. coli BL21(DE3)pLysS
T4 sequence (O60880 1-128): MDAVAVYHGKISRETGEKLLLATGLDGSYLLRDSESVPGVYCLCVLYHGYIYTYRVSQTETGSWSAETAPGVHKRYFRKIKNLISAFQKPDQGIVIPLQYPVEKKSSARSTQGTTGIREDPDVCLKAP

[6] = biological target: T5, SHIP SH2 from SHIP-1 (Homo sapiens, UniProt Q92835); experiment: SPR binding of SHIP SH2 domain to immobilised phosphopeptides; settings: 37°C, equilibrium binding analysis
T5 construct: the single SH2 domain from SHIP-1; His-tag; made in house; host or cells: E. coli BL21(DE3)pLysS
T5 sequence (Q92835 5-101 limits assumed): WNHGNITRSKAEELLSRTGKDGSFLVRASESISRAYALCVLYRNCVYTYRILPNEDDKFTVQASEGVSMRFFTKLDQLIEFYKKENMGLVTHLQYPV
Excerpt: as §1
Measurements of protein-protein affinity were performed on BIAcore 3000 and T200 systems using CM5 or biotin capture chips (GE Healthcare Ltd, UK). Streptavidin was coupled to CM5 sensor chips using standard NHS/EDC chemical linkage, followed by immobilization of biotinylated peptides. The levels of peptide immobilized were approximately 25 and 50 response units respectively of single and tandem tyrosine motifs to facilitate saturating binding and limitation of “bridging” [22], [45]. […] Equilibrium binding coefficients and dissociation and association rates were calculated using BIAevaluation and/or GraphPad Prism 5.4 software. […]

[7] = ten two-fold dilutions, top concentration 0.3 μM, one-site specific binding model, curve shown in Figure 2B, read-out: KD (Figure 2B)

CC(C)C[C@H](NC(=O)[C@@H](NC(=O)[C@H](CC(=O)O)NC(=O)[C@@H](NC(=O)[C@H](Cc1ccc(OP(=O)(O)O)cc1)NC(=O)[C@H](CC(=O)O)NC(=O)[C@H](CO)NC(=O)[C@H](CC(N)=O)NC(=O)[C@H](CO)NC(=O)[C@H](CC(N)=O)NC(=O)CCCC[C@@H]1SC[C@@H]2NC(=O)N[C@@H]21)C(C)C)C(C)C)C(=O)N1CCC[C@H]1C(=O)O [EAT-2 Y127] (Biotin-NSNSD[pY]VDVLP-OH)
Kd [1]: 18 nM
Kd [2]: 87 nM

SHP-2: SH2 domain containing tyrosine phosphatase
pull-down by CD244 ITSM1 [3]: pulled down by the ITSM peptide

CC[C@H](C)[C@H](NC(=O)[C@H](CCC(=O)O)NC(=O)[C@@H](NC(=O)[C@@H](NC(=O)[C@H](CO)NC(=O)[C@H](Cc1ccc(OP(=O)(O)O)cc1)NC(=O)[C@@H](NC(=O)[C@@H](NC(=O)[C@H](CC(N)=O)NC(=O)[C@H](C)NC(=O)[C@@H]1CCCN1C(=O)CCCC[C@@H]1SC[C@@H]2NC(=O)N[C@@H]21)[C@@H](C)O)C(C)C)[C@@H](C)O)C(C)C)C(=O)O [CRACC ITSM2] (Biotin-PANTV[pY]STVEI-OH)
Kd [4, 7]: 1 nM

Biotin-GENTEpYDTIPH [CRACC ITSM1, synthetic biotinylated phosphopeptide from human CRACC ITSM1]
binding of EAT-2 [4]: Neither SAP nor EAT-2 bound; also recorded: No specific association
binding of SAP [5]: Neither SAP nor EAT-2 bound; also recorded: No specific association

CC[C@H](C)[C@H](NC(=O)[C@H](CC(C)C)NC(=O)[C@H](CO)NC(=O)[C@H](Cc1ccc(OP(=O)(O)O)cc1)NC(=O)[C@H](CC(C)C)NC(=O)[C@@H](NC(=O)[C@H](Cc1ccc(O)cc1)NC(=O)[C@H](C)NC(=O)[C@@H]1CCCN1C(=O)CCCC[C@@H]1SC[C@@H]2NC(=O)N[C@@H]21)[C@@H](C)O)C(=O)N[C@@H](CCC(N)=O)C(=O)N1CCC[C@H]1C(=O)O [CD244 ITSM3] (Biotin-PAYTL[pY]SLIQP-OH; C-terminus assumed)
binding of SHIP SH2 domain [6]: preference of SHIP SH2 domain

SHP-1: SH2 domain containing phosphatase
pull-down by CD244 ITSM1 [3]: pulled down by the ITSM peptide

CC[C@H](C)[C@H](NC(=O)[C@@H](NC(=O)[C@H](CC(C)C)NC(=O)[C@H](Cc1ccccc1)NC(=O)[C@H](CCC(=O)O)NC(=O)CCCC[C@@H]1SC[C@@H]2NC(=O)N[C@@H]21)[C@@H](C)O)C(=O)N[C@@H](Cc1ccc(OP(=O)(O)O)cc1)C(=O)N[C@@H](CCC(=O)O)C(=O)N[C@@H](CC(=O)O)C(=O)N[C@H](C(=O)N[C@@H](CCCCN)C(=O)N[C@@H](CC(=O)O)C(=O)O)C(C)C [CD244 ITSM1]
Kd ([4]; HBS-EP pH 7.4, soluble EAT-2, immobilised phosphopeptide, mean, n and range in own columns of Table 4, read-out: KD): 60 nM
Kd [4, 7]: 12 nM
Kd [1]: 130 nM
Kd [2]: 360 nM

CC[C@H](C)[C@H](NC(=O)[C@H](CCSC)NC(=O)[C@H](CO)NC(=O)[C@H](Cc1ccc(OP(=O)(O)O)cc1)NC(=O)[C@@H](NC(=O)[C@@H](NC(=O)[C@H](CO)NC(=O)CNC(=O)CNC(=O)CCCC[C@@H]1SC[C@@H]2NC(=O)N[C@@H]21)[C@@H](C)O)[C@@H](C)CC)C(=O)N[C@@H](CCC(N)=O)C(=O)N[C@@H](CO)C(=O)O [CD244 ITSM2]
binding of SHIP SH2 domain [6]: preference of SHIP SH2 domain

Growth factor receptor-bound protein 2 (GRB2): SH2 domain containing protein pulled down by CD244 ITSM1
pull-down by CD244 ITSM1 [3]: pulled down by the ITSM peptide
